{"source": "patent US20210186972A1", "about": "“FORMULATIONS AND METHODS FOR THE PREVENTION AND TREATMENT OF TUMOR METASTASIS AND TUMORIGENESIS” (THE UNITED STATES OF AMERICA, AS REPRESENTED BY THE …, priority 2018, published 2021)", "key": {"normal mouse hepatocytes": {"system": "normal mouse hepatocytes", "test": "Nucleolar volume by EM in normal liver tissue", "type": "in vivo", "details": "treated normal mouse hepatocytes", "description": "FIGS. 49A-49C are graphs showing quantitative evaluation of the EM images of FIG. 48.\nThe nucleolar disruption was reversible within 48 hours upon withdrawal of metarrestin (FIG. 47). Similar disruptions were observed among other treated cell lines, including PANC1 and PC3M cells (FIG. 48), primary tumor, and liver metastatic tissues in the PANC1 xenograft model (FIG. 21, right panels). […] The segregation of the nucleolar compartments observed by EM is believed to correspond to the nucleolar capping structures detected by immunofluorescence of nucleolar proteins (FIGS. 21A-21C, 23, and 50). The coupling of nucleolar segregation with PNC loss was confirmed across several cell lines by immunolabeling with antibodies against the nucleolar Pol I transcription initiation factors, UBF (upstream binding transcription factor) (FIGS. 23 and 50), or Pol I polymerase, RPA194 (FIG. 51). Factors involved in ribosome maturation, such as fibrillarin or NOPP140 (FIGS. 51 and 52) were similarly reorganized. In contrast, UBF distribution was not changed when the normal human fibroblast GM02153 cell line was treated with metarrestin at the same concentration (FIG. 53)."}, "NSG PANC1 mice": {"system": "NSG PANC1 mice", "test": "Survival in NSG PANC1 pancreatic cancer metastasis model, drug-infused chow", "type": "in vivo", "text": "FIG. 13 is a graph showing the survival rate of mice following metarrestin or vehicle treatment. This graph illustrates that metarrestin treatment extends survival in the NSG PANC1 pancreatic cancer metastasis model. […] The survival rate in the y-axis and the number of days after treatment is on the x-axis. Metarrestin treatment is the solid grey line at 100% survival and the descending black line is the vehicle (*** p<0.001).\nFIG. 14 is a graph showing the survival rate of mice following metarrestin or vehicle treatment. This graph illustrates that metarrestin treatment extends survival in the NSG PANC1 pancreatic cancer metastasis model. Metarrestin treatment was provided through drug-infused chow (70 ppm designed to administer 10 mg/kg daily) after mice developed macrometastasis, including visible liver surface deposits. Metarrestin treatment extended the survival time of the mice compared to vehicle treated (NIH 31 Haslan diet). The survival rate in the y-axis and the number of days after treatment is on the x-axis. Metarrestin treatment is the solid grey line and the black line is the vehicle ([…]).\nTo evaluate whether metarrestin treatment can provide a survival advantage by preventing metastatic progression, the above experiment was repeated, but mice were followed until death or when animals reached study endpoint. NSG mice were injected with 60,000 3D PANC1 cells (details of assay below), and daily treatment with metarrestin-infused chow (10 mg/kg; 70 ppm, micronized particles added to NIH 31 Haslan rodent diet) began 6 weeks after tumor cell implantation, when metastasis was limited to micrometastasis by histopathological examination (FIG. 63). Animals in the control group receiving regular chow started to die 25 days after the start of treatment, whereas the metarrestin treatment group had no mortality more than 90 days after the start of treatment (FIG. 13). […]\nPancreatic cancer model: 60,000 luciferase-tagged PANC1 spheres were injected into the pancreas of Nod/IL2gamma (null) mice (obtained from NCI Mouse Repository, Frederick, Md.; on ACUC-approved animal protocol SB-211-2). […] Organs were then individually dissected, subjected to quantitative xenogene imaging, and fixed with 4% non-buffered formaldehyde. Impact of metastatic burden was calculated and graphed as liver and lung/primary tumor ratios based on a five-minute photon count for the liver normalized to liver weight (g), which was then compared to the average photon count per weight (g) of the primary pancreatic tumor of the same animal. […] Liver metastasis/mm^2 was calculated as the sum of the […] of the individual metastases. Tumor volume (mm^3) was calculated as (L×W2), where L=length (mm) and W=width (mm). Animal survival was measured from the first day of treatment until death. […]"}, "PANC1 cells": {"system": "PANC1 cells", "test": "24-well Transwell MATRIGEL invasion assay, PANC1", "type": "cell-based, human", "details": "0.6 μM, within 24 hours", "description": "FIG. 3 is a bar graph showing that metarrestin inhibits MATRIGEL gelatinous protein mixture (BD Biosciences, Franklin Lakes, N.J.) invasion at below micromolar concentrations (0.6 μM) within 24 hours of treatment (* p<0.05 and ** p<0.01 in comparison to DMSO [control]). The invasion (%) is on the y-axis and the metarrestin [microM] is on the x-axis. The cell line PC3M is shown in white bars and the cell line PANC1 (human pancreas) is shown in black bars.\n24-well Transwell Permeable MATRIGEL gelatinous protein mixture Invasion assay: The effect of metarrestin on invasion activity of PANC1 and PC3M cells was measured using 24-well Transwell Permeable MATRIGEL gelatinous protein mixture Invasion Chambers with 8 μm pores (Corning, Cat #354480). Membranes were rehydrated with 500 μL of serum-free DMEM (Thermo Fisher, Cat #11965084) both inside the chamber and inside the well and incubated for two hours at 37° C., 5% CO2. Cells were detached, washed, resuspended in serum-free DMEM, counted, and diluted to a final concentration of 1×10^5 cells/mL in six separate 15 mL conical tubes. […] 750 μL of DMEM plus 10% FBS acting as a chemoattractant were placed in the basal wells. Plates were incubated at 37° C., 5% CO2 for 24 hours. […]"}, "Pol II transcription": {"system": "Pol II transcription", "test": "Pol II transcription status: CUGBP and SC35 immunolabeling", "type": "cell-based", "text": "To further determine whether metarrestin interferes with Pol II transcription in general, CUGBP was immunolabeled. The steady state nuclear distribution of CUGBP, a multifunctional hnRNP protein highly enriched in the PNC, is dependent upon Pol II transcription."}, "[1]": {"details": "infused chow 10 mg/kg (70 ppm) after macrometastasis visible"}}}
{"smiles": "N=c1c2c(-c3ccccc3)c(-c3ccccc3)n(Cc3ccccc3)c2ncn1[C@H]1CC[C@H](O)CC1", "note": "[metarrestin]", "values": [{"measurement": "Nucleolar volume", "setting": "normal mouse hepatocytes", "result": "not changed"}, {"measurement": "Extension of median overall survival over control group", "setting": "NSG PANC1 mice; [1]", "result": "more than two-fold"}, {"measurement": "Organ replacement with tumors at necropsy (liver, lungs)", "setting": "NSG PANC1 mice; [1]", "result": "preserved organs"}, {"measurement": "Primary tumor growth in the pancreas", "setting": "NSG PANC1 mice; [1]", "result": "no significant difference"}, {"measurement": "Time after start of treatment without mortality", "setting": "NSG PANC1 mice; infused chow 10 mg/kg (70 ppm) from 6 weeks after implantation (micrometastasis)", "result": "more than 90 days"}, {"measurement": "Invasion of PANC1 cells", "setting": "PANC1 cells", "result": "effectively blocked the invasion"}, {"measurement": "Localization of CUGBP", "setting": "Pol II transcription", "result": "without causing cytoplasmic relocation of CUGBP"}, {"measurement": "SC35 distribution pattern", "setting": "Pol II transcription", "result": "not significantly changed"}]}
